# From US8710077B2, “Cycloalkylamine substituted isoquinoline and isoquinolinone derivatives” (Sanofi, priority 2006, dated 2014)
# Molecular target: T1, human recombinant ROCK II (Homo sapiens, UniProt O75116)
# T1 construct: recombinant human ROCK-II residues 11-552; His6 (N); purchased Upstate Ltd., Dundee, UK
# Test: Determination of Rho Kinase Inhibition (Caliper peptide phosphorylation assay)
# Assay type: biochemical
# Details: ROCK II residues 11-552, 60 min at 32° C., compound in the form (salt or free base) obtained in the examples
# Description: Determination of Rho Kinase Inhibition
# To measure Rho-kinase inhibition, IC50 values were determined according to the following protocol:
# Active human recombinant ROCK II (N-terminal His6-tagged recombinant human ROCK-II residues 11-552) was purchased from Upstate Ltd., Dundee, UK. The peptide substrate, Fluorescein-AKRRRLSSLRA-COOH, was obtained from JPT Peptide Technologies, Berlin, Germany. Adenosine-5′-triphosphate (ATP), bovine serum albumine (BSA), dimethylsulphoxide (DMSO), 4-(2-Hydroxyethyl)piperazine-1-ethanesulfonic acid (Hepes), Brij-35 and dithiothreitol (DTT) were purchased from Sigma-Aldrich, Munich, Germany. Tris(hydroxymethyl)-aminomethane (Tris), magnesium chloride, NaOH, 1M HCl and EDTA were obtained from Merck Biosciences, Darmstadt, Germany. “Complete” protease inhibitor was from Roche Diagnostics, Mannheim, Germany.
# Test compounds were diluted to the appropriate concentrations in buffer 1 (25 mM Tris-HCl, pH 7.4, 5 mM MgCl2, 2 mM DTT, 0.02% (w/v) BSA and 3% DMSO). The ROCK II enzyme was diluted to a concentration of 100 ng/ml in buffer 2 (25 mM Tris-HCl, pH 7.4, 5 mM MgCl2, 2 mM DTT and 0.02% (w/v) BSA). The peptide substrate and ATP were diluted to concentrations of 3 μM and 120 μM, respectively, in the buffer 2. Two μl of the compound solution were mixed with 2 μl of the diluted enzyme in a 384-well small volume microtiter plate (Greiner, Bio-One, Frickenhausen, Germany), and the kinase reaction was initiated by addition of 2 μl of the solution containing peptide substrate and ATP. After 60 min incubation at 32° C., the reaction was stopped by addition of 20 μl of a solution containing 100 mM Hepes-NaOH, pH 7.4, 0.015% (v/v) Brij-35, 45 mM EDTA and 0.227% chip coating reagent 1 (Caliper Lifescience Inc, Hopkinton, Mass.). Phosphorylation of the substrate peptide was then detected on a Caliper 3000 instrument essentially as described by Pommereau et al (J. Biomol. Screening 9 (5), 409-416, 2004). Separation conditions were as follows: Pressure—1.3 psi, upstream voltage—1562 V, downstream voltage—500 V, sample sip time 200 ms. Positive controls (buffer 1 instead of compound) and negative controls (buffer 1 instead of compound and buffer 2 instead of ROCK II) were run in parallel on each plate.
# The following products/compounds were tested in said assay by using the respective form (salt or free base) obtained as in the examples described above and the following activities were measured.
# T1 sequence (O75116 11-552): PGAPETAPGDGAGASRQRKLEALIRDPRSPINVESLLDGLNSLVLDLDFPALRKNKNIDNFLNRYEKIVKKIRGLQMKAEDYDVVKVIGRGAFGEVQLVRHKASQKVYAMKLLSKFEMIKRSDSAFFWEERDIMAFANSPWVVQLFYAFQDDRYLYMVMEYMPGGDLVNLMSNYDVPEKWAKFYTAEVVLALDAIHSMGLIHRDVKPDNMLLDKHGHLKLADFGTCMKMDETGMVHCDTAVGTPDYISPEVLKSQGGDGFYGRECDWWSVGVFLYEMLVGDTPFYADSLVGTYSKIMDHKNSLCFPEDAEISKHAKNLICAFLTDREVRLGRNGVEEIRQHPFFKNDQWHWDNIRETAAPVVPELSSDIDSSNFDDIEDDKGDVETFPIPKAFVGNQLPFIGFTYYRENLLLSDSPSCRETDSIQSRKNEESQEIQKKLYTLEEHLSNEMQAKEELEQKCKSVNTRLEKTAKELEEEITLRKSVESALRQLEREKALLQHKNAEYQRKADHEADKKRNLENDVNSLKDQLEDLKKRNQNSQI
row,IC50 [nM],Structure (SMILES)
1,≤ 1000,"COc1ccc(C2(CN)CCC(Oc3cc4cc[nH]c(=O)c4cc3Cl)CC2)cc1 (stereo not drawn) [Compound 114, 6-[4-Aminomethyl-4-(4-methoxy-phenyl)-cyclohexyloxy]-7-chloro-2H-isoquinolin-1-one]"
2,≤ 1000,"COc1ccc(C2(CN)CCC(Oc3cc4cc[nH]c(=O)c4cc3Cl)CC2)cc1OC (stereo not drawn) [Compound 112, 6-[4-Aminomethyl-4-(3,4-dimethoxy-phenyl)-cyclohexyloxy]-7-chloro-2H-isoquinolin-1-one]"
3,≤ 1000,"NCC1(c2ccc(Cl)c(Cl)c2)CCC(Oc2cc3cc[nH]c(=O)c3cc2Cl)CC1 (stereo not drawn) [Compound 116, 6-[4-Aminomethyl-4-(3,4-dichloro-phenyl)-cyclohexyloxy]-7-chloro-2H-isoquinolin-1-one]"
4,≤ 1000,"NCC1(c2ccc(F)cc2)CCC(Oc2cc3cc[nH]c(=O)c3cc2Cl)CC1 (stereo not drawn) [Compound 113, 6-[4-Aminomethyl-4-(4-fluoro-phenyl)-cyclohexyloxy]-7-chloro-2H-isoquinolin-1-one]"
5,≤ 1000,"C=CCC1(N)CCC(Oc2cc3cc[nH]c(=O)c3cc2Cl)CC1 (mixture of isomers) [Compound 20, 6-(4-Allyl-4-amino-cyclohexyloxy)-7-chloro-2H-isoquinolin-1-one]"
6,≤ 1000,"NC1(CC(O)CO)CCC(Oc2cc3cc[nH]c(=O)c3cc2Cl)CC1 (mixture of isomers) [Compound 57, 6-[4-amino-4-(2,3-dihydroxy-propyl)-cyclohexyloxy]-7-chloro-2H-isoquinolin-1-one]"
7,≤ 1000,"NCC1(c2ccccc2)CCC(Oc2cc3ccncc3cc2Cl)CC1 (stereo not drawn) [Compound 120, C-[4-(7-Chloro-isoquinolin-6-yloxy)-1-phenyl-cyclohexyl]-methylamine]"
8,≤ 1000,"N[C@]1(C2CC2)CC[C@H](Oc2cc3cc[nH]c(=O)c3cc2Cl)CC1 [Compound 41, 6-(cis-4-Amino-4-cyclopropyl-cyclohexyloxy)-7-chloro-2H-isoquinolin-1-one]"
9,1000 to 10000,"Cc1cccc(C2(CN)CCC(Oc3cc4cc[nH]c(=O)c4cc3Cl)CC2)c1 (stereo not drawn) [Compound 111, 6-[4-Aminomethyl-4-(3-methyl-phenyl)-cyclohexyloxy]-7-chloro-2H-isoquinolin-1-one]"
10,≤ 1000,"NCC1(c2cccc(Cl)c2)CCC(Oc2cc3cc[nH]c(=O)c3cc2Cl)CC1 (stereo not drawn) [Compound 110, 6-[4-Aminomethyl-4-(3-chloro-phenyl)-cyclohexyloxy]-7-chloro-2H-isoquinolin-1-one]"
11,≤ 1000,"NCC1(c2ccccc2)CCC(Oc2cc3cc[nH]c(=O)c3cc2Cl)CC1 (stereo not drawn) [Compound 108, 6-(4-Aminomethyl-4-phenyl-cyclohexyloxy)-7-chloro-2H-isoquinolin-1-one]"
12,≤ 1000,"NCC1(c2ccc(Cl)cc2)CCC(Oc2cc3cc[nH]c(=O)c3cc2Cl)CC1 (stereo not drawn) [Compound 109, 6-[4-Aminomethyl-4-(4-chloro-phenyl)-cyclohexyloxy]-7-chloro-2H-isoquinolin-1-one]"
